In experiment [1] the target is T1, Full length DGKζ (in-house protein M1-V929) (Homo sapiens, UniProt Q13574).
T1 construct: His (N); TEV site (N); made in house; host or cells: Sf9 insect cells (Bac-to-Bac baculovirus)
As to the kind of experiment: Biochemical DGK IC50 assay (ADP-Glo, lipid micelle substrate), DGKζ. As to conditions: 1 hour preincubation, 1 hour reaction, room temperature. The method in brief:
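Enzyme: full-length human DGKζ M1-V929, produced in baculovirus-infected Sf9 cells; substrate DAG/PS micelles. Buffer 50 mM HEPES, 10 mM MgCl2, 0.01 mM CaCl2, 0.1 mM Na3VO4.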

Experiment [2] has as its target T2, Full length DGKα (D21-10BG, SignalChem) (Homo sapiens, UniProt P23743).
T2 construct: Full length DGKα (D21-10BG, SignalChem); purchased SignalChem D21-10BG
The experiment can be described thus: Biochemical DGK IC50 assay (ADP-Glo, lipid micelle substrate), DGKα. Conditions: 1 hour preincubation, 1 hour reaction, room temperature. A digest of the protocol: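 ADP-Glo luminescence quantified ADP produced after a 1 h room-temperature reaction of full-length DGKα on DAG/PS micelles, in HEPES buffer containing MgCl2, CaCl2, vanadate, BSA and Tween-20. IC50 values derive from activity inhibition over a compound concentration series.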
For orientation: ADP-Glo first removes unused ATP, then detects ADP through luciferase.

SMILES strings stand for the structures.

T2 sequence (P23743 whole entry): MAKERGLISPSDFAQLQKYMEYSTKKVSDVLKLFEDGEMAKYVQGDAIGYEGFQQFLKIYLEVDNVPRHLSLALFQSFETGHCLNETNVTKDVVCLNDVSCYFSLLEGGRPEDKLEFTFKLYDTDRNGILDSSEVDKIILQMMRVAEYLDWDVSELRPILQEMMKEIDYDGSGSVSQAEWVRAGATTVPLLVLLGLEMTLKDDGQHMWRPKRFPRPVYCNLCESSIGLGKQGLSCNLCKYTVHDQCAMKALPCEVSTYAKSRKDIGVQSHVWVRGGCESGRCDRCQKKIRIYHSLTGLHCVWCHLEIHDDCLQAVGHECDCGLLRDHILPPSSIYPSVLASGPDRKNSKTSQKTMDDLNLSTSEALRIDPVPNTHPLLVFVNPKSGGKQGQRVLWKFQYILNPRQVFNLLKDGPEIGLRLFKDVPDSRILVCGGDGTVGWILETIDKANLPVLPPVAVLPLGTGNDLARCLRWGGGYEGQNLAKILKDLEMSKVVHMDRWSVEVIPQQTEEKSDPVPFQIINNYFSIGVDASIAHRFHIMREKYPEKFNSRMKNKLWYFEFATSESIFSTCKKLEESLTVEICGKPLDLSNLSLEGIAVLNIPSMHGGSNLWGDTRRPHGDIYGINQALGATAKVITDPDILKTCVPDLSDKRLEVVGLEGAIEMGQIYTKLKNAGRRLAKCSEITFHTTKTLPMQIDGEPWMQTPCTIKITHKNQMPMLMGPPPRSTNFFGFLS
T1 sequence (Q13574 1-929 isoform Q13574-4): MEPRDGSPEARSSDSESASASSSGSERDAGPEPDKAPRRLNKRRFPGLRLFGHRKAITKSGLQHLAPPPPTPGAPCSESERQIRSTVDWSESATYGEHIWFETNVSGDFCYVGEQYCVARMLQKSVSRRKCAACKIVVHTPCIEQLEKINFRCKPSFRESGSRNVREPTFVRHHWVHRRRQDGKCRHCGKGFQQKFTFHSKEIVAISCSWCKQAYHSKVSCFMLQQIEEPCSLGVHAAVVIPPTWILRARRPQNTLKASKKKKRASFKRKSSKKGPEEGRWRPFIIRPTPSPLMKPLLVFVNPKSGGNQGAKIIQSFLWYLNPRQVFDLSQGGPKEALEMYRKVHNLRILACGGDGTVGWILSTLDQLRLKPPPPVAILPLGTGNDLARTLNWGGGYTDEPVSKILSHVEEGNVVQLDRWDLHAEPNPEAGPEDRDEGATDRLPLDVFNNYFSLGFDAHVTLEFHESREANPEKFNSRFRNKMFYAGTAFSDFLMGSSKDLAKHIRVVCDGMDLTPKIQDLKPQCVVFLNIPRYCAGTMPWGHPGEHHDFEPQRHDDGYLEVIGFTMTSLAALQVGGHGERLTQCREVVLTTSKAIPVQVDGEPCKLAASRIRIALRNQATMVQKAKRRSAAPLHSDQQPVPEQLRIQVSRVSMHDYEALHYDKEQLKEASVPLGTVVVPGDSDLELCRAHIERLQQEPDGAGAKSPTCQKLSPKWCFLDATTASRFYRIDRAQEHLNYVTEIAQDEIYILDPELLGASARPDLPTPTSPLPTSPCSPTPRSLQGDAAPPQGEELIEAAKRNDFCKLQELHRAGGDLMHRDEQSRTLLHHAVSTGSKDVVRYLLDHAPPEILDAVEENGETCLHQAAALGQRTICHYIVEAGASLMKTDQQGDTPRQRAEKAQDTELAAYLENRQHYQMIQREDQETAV

Consider `CCn1c(CC#N)nc2c(N3C[C@@H](C)N(C(C)c4ccnc(C(C)(C)C)c4)C[C@@H]3C)nc(=O)n(C)c21` (stereo partly drawn) [Compound A129, 2-(6-((2S,5R)-4-(1-(2-(tert-butyl)pyridin-4-yl)ethyl)-2,5-dimethylpiperazin-1-yl)-9-ethyl-3-methyl-2-oxo-3,9-dihydro-2H-purin-8-yl)acetonitrile], for which the IC50 (as a rule, the concentration at which inhibition is half-maximal) was 0.004 µM in experiment [1] and greater than 150 µM in experiment [2].
For `CC[C@H]1CN(C(C)c2ccc3ncc(C)nc3c2)[C@H](CC)CN1c1nc(=O)n(C)c2c1nc(CC#N)n2C` (single isomer, unassigned) [Compound A51b], in that order: 0.265 µM and 22.3 µM.
On to `CCn1c(CC#N)nc2c(N3C[C@@H](C)N(C(C)c4cc(F)c5c(c4)OC(C)(C)O5)C[C@@H]3C)nc(=O)n(C)c21` (mixture of isomers) [Compound A173, 2-(9-ethyl-6-((2S,5R)-4-(1-(7-fluoro-2,2-dimethylbenzo[d][1,3]dioxol-5-yl)ethyl)-2,5-dimethylpiperazin-1-yl)-3-methyl-2-oxo-3,9-dihydro-2H-purin-8-yl)acetonitrile], for which the IC50 in experiment [1] came out at 0.044 µM; in experiment [2] it was 143 µM.
For `CC[C@@H]1CN(c2nc(=O)n(C)c3c2nc(CC#N)n3C)[C@@H](C)CN1C(C)c1ccc2ncc(C)nc2c1` (single isomer, unassigned) [Compound A50b], in that order: 0.332 µM and 13.6 µM.
The like results for `CCn1c(CC#N)nc2c(N3C[C@@H](C)N(C(C)c4ccc(F)cc4C(F)(F)F)C[C@@H]3C)nc(=O)n(C)c21` (single isomer, unassigned) [Compound A35a] were, in that order, 2.76 µM and greater than 150 µM.
For `CCn1c(CC#N)nc2c(N3C[C@@H](C)N(C(C)c4ccc(C)cc4C(F)(F)F)C[C@@H]3C)nc(=O)n(C)c21` (single isomer, unassigned) [Compound A116b], in that order: 0.228 µM and greater than 150 µM.
For the molecule `CCn1c(CC#N)nc2c(N3C[C@@H](C)N(C(C)c4cc5c(cc4F)OC(C)(C)CO5)C[C@@H]3C)nc(=O)n(C)c21` (single isomer, unassigned) [Compound A156a], the IC50 was determined as 0.496 µM in experiment [1] and 68.6 µM in experiment [2].
The like results for `CC(c1ccc(C(F)(F)F)cn1)N1C[C@H](C)N(c2nc(=O)n(C)c3c2nc(CC#N)n3C)C[C@H]1C` (single isomer, unassigned) [Compound A148b] were, in that order, 0.176 µM and 0.666 µM.
With `CC[C@@H]1CN(c2nc(=O)n(C)c3c2nc(CC#N)n3CC)[C@@H](C)CN1C(C)c1ccc2c(n1)OC(C)(C)CO2` (mixture of isomers) [Compound A158, 2-(6-((2S,5R)-4-(1-(3,3-dimethyl-2,3-dihydro-[1,4]dioxino[2,3-b]pyridin-6-yl)ethyl)-5-ethyl-2-methylpiperazin-1-yl)-9-ethyl-3-methyl-2-oxo-3,9-dihydro-2H-purin-8-yl)acetonitrile], the results for the IC50 in experiment [1] and in experiment [2] were 0.033 µM and 122 µM, respectively.
The like results for `CCn1c(CC#N)nc2c(N3C[C@@H](C)N(C(C)c4cccc(N5CC6(COC6)C5)c4)C[C@@H]3C)nc(=O)n(C)c21` (stereo partly drawn) [Compound A140, 2-(6-((2S,5R)-4-(1-(3-(2-oxa-6-azaspiro[3.3]heptan-6-yl)phenyl)ethyl)-2,5-dimethylpiperazin-1-yl)-9-ethyl-3-methyl-2-oxo-3,9-dihydro-2H-purin-8-yl)acetonitrile] were, in that order, 0.594 µM and greater than 150 µM.
With `CC(c1ccc(F)cc1C(F)(F)F)N1C[C@H](C)N(c2cc(=O)n(C)c3[nH]c(CC#N)nc23)C[C@H]1C` (stereo partly drawn) [Compound A9, 2-(7-((2S,5R)-4-(1-(4-fluoro-2-(trifluoromethyl)phenyl)ethyl)-2,5-dimethylpiperazin-1-yl)-4-methyl-5-oxo-4,5-dihydro-3H-imidazo[4,5-b]pyridin-2-yl)acetonitrile], the figures for the IC50 in experiment [1] and in experiment [2] were 0.262 µM and greater than 10 µM, respectively.
The like results for `CCn1c(CC#N)nc2c(N3C[C@@H](C)N(C(C)c4ccn(C)c(=O)c4)C[C@@H]3C)nc(=O)n(C)c21` (stereo partly drawn) [Compound A107, 2-(6-((2S,5R)-2,5-dimethyl-4-(1-(1-methyl-2-oxo-1,2-dihydropyridin-4-yl)ethyl)piperazin-1-yl)-9-ethyl-3-methyl-2-oxo-3,9-dihydro-2H-purin-8-yl)acetonitrile] were, in that order, greater than 10 µM and greater than 150 µM.
For `CCn1c(CC#N)nc2c(N3C[C@@H](C)N(C(C)c4ccc5c(=O)cc(C)n(C)c5c4)C[C@@H]3C)nc(=O)n(C)c21` (stereo partly drawn) [Compound A155, 2-(6-((2S,5R)-4-(1-(1,2-dimethyl-4-oxo-1,4-dihydroquinolin-7-yl)ethyl)-2,5-dimethylpiperazin-1-yl)-9-ethyl-3-methyl-2-oxo-3,9-dihydro-2H-purin-8-yl)acetonitrile], in that order: 1.21 µM and 101 µM.
For `CCn1c(CC#N)nc2c(N3C[C@@H](C)N(C(C)c4ccc5nc(C)sc5c4)C[C@@H]3C)nc(=O)n(C)c21` (single isomer, unassigned) [Compound A56b], in that order: 0.023 µM and 50.9 µM.
On to `CCn1c(CC#N)nc2c(N3C[C@@H](C)N(C(C)c4cccc(C(F)(F)F)n4)C[C@@H]3C)nc(=O)n(C)c21` (single isomer, unassigned) [Compound A118a], for which the results for the IC50 in experiment [1] and in experiment [2] were 4.82 µM and greater than 150 µM, respectively.
In the case of `CCn1c(=O)nc(N2C[C@@H](C)N(C(C)c3ccc4ncc(C)nc4c3)C[C@@H]2C)c2nc(CC#N)n(C)c21` (single isomer, unassigned) [Compound A53a], the figures for the IC50 in experiment [1] and in experiment [2] were 0.024 µM and 60.3 µM, respectively.
Regarding `CC[C@@H]1CN(c2nc(=O)n(C)c3c2nc(CC#N)n3C)[C@@H](C)CN1C(C)c1ccc2c(n1)OC(C)(C)CO2` (mixture of isomers) [Compound A159, 2-(6-((2S,5R)-4-(1-(3,3-dimethyl-2,3-dihydro-[1,4]dioxino[2,3-b]pyridin-6-yl)ethyl)-5-ethyl-2-methylpiperazin-1-yl)-3,9-dimethyl-2-oxo-3,9-dihydro-2H-purin-8-yl)acetonitrile], the IC50 was found to be 0.011 µM in experiment [1] and 31.5 µM in experiment [2].
For the molecule `CCn1c(CC#N)nc2c(N3C[C@@H](C)N(C(C)c4ccnc(NC(C)C)c4)C[C@@H]3C)nc(=O)n(C)c21` (stereo partly drawn) [Compound A122, 2-(9-ethyl-6-((2S,5R)-4-(1-(2-(isopropylamino)pyridin-4-yl)ethyl)-2,5-dimethylpiperazin-1-yl)-3-methyl-2-oxo-3,9-dihydro-2H-purin-8-yl)acetonitrile], the IC50 in experiment [1] was 0.834 µM; in experiment [2], greater than 150 µM.
The like results for `Cc1ccc(C(C)N2C[C@H](C)N(c3cc(=O)n(C)c4c3nc(CC#N)n4C)C[C@H]2C)c(C(F)(F)F)c1` (single isomer, unassigned) [Compound A8a] were, in that order, 1.48 µM and greater than 10 µM.
For `CC(c1ccc2c(c1)OCCO2)N1C[C@H](C)N(c2nc(=O)n(C)c3c2nc(CC#N)n3C)C[C@H]1C` (single isomer, unassigned) [Compound A58b], in that order: 1.66 µM and 90.8 µM.

Values taken from US20260125378A2, “Heterocyclic Compounds” (BeOne Medicines I GmbH, priority 2023, published 2026).
